From article PMC4336611 (Chemistry & biology, 2015)
pEC50: −log10 of the molar value.

Target: LPA2 (Homo sapiens, UniProt Q9HBW0)
Assay type: cell-based

Sequence of LPA2 (Q9HBW0 whole entry): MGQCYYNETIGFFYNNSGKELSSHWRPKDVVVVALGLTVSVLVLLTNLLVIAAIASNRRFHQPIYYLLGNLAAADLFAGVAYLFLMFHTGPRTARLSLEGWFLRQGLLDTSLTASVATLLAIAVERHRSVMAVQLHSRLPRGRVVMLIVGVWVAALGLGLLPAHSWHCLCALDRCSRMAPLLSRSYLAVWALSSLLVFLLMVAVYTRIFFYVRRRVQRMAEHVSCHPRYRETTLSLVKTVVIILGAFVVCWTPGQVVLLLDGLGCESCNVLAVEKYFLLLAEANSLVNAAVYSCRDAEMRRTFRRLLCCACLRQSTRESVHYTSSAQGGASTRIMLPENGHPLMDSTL

`O=C(O)c1ccccc1S(=O)(=O)NCCCCN1C(=O)c2cccc3cccc(c23)C1=O` [DBIBB, 2-[4-(1,3-Dioxo-1H,3H-benzo[de]isoquinolin-2-yl)butylsulfamoyl] benzoic acid] was tested, and the pEC50 was about 7.00.
